Paper PMC6025191, “Heteronemin, a Marine Sesterterpenoid-Type Metabolite, Induces Apoptosis in Prostate LNcap Cells via Oxidative and ER Stress Combined with the Inhibition of Topoisomerase II and Hsp90” (Marine Drugs, 2018)

Target: T1, topoisomerase IIα (Homo sapiens, UniProt P11388)
T1 construct: gene TOP2A
Assay: cell-free DNA cleavage assay with pHOT1 plasmid ([…], induction of linear DNA)
Type: biochemical

T1 sequence (P11388 whole entry): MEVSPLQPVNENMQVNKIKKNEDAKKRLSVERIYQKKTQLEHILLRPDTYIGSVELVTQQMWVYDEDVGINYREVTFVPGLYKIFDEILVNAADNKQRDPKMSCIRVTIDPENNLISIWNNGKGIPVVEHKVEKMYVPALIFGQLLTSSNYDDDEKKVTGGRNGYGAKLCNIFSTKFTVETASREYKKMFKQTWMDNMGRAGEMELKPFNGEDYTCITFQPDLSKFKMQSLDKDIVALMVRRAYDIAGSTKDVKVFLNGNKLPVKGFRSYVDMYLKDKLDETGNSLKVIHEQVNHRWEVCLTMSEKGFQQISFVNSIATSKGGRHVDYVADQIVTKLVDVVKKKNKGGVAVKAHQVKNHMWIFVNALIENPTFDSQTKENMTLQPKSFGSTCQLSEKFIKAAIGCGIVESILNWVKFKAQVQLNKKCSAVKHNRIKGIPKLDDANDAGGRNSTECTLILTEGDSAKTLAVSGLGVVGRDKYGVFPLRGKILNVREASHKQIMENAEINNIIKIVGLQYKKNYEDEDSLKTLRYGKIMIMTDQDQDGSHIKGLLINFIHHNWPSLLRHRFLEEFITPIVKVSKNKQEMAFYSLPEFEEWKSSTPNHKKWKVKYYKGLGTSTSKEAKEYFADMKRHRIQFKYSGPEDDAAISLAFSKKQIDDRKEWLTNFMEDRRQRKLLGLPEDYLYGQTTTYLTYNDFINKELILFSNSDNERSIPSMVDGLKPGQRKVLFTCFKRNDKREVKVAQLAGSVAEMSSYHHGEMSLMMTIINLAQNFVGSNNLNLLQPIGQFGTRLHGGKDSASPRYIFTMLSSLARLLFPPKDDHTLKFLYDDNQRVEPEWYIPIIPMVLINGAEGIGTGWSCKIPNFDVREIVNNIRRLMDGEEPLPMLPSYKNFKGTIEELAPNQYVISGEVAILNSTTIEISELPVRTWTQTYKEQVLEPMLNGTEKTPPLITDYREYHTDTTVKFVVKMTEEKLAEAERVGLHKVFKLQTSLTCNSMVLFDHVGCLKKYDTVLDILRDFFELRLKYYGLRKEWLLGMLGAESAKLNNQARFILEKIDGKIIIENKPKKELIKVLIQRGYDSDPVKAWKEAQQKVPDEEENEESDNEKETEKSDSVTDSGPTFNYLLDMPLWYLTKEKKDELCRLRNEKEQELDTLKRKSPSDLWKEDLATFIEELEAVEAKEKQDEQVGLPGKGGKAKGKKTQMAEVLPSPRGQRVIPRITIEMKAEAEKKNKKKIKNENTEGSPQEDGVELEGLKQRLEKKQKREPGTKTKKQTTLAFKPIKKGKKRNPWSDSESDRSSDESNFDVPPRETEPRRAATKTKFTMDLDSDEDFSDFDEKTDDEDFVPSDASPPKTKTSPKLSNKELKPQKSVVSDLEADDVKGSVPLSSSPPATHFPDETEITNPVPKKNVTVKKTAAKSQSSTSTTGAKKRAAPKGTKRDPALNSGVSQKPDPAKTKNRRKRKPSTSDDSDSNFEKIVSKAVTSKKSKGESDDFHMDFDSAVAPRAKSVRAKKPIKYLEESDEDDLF

COc1cc([C@@H]2c3cc4c(cc3[C@@H](O[C@@H]3O[C@@H]5CO[C@@H](C)O[C@H]5[C@H](O)[C@H]3O)[C@H]3COC(=O)[C@H]23)OCO4)cc(OC)c1O [etoposide]
cell-free DNA cleavage assay with pHOT1 plasmid (500 μM, induction of linear DNA): A linear DNA strand was observed upon treating the supercoiled pHOT1 plasmid DNA with etoposide, a standard topo II poison
